Tested on: virus-stock de souche HSV1
Test: Virucidal properties on HSV1 stock virus (infectious titre after incubation at 37°C)
Type: cell-based
Procedure: On a apprécié les propriétés virucides du 3,5-di-t-butyl-4-hydroxybenzoate d'octaoxyéthylèneglycol de formule : [drawing 23] dénommé ci-après par commodité AVF1, sur un échantillon de "virus-stock" de souche HSV1. Le titre infectieux (TV) d'échantillons traités avec AVF1 a été comparé au titre infectieux (TV0) d'un échantillon témoin afin de calculer la valeur log (TV/TV0).
Le protocole a consisté à incuber à 37°C l'échantillon de virus HSV1 stock avec le composé AVF1, en faisant varier la concentration en AVF1 et le temps d'incubation. TV0 a été déterminé à partir d'une composition constituée de 0,5 ml de milieu de culture MEM et 0,5 ml de virus-stock et TV a été déterminée à partir d'une composition constituée de 0,5 ml de AVF1 à diverses concentrations dans ledit milieu MEM et de 0,5 ml de virus-stock. Les valeurs TV0 et TV obtenus sont des multiples de la DI50/ml.
• Concentrations en AVF1 : 0,03; 0,06; 0,12; 0,25; 0,5; 1,25; 2,5; 5 mg/ml. • Temps d'incubation : 60 et 120 minutes. • Résultats : • Titre du témoin-virus : […] DI50/ml. • AVF1 < 2,5 mg/ml : TV. • AVF1 ≥ 2,5 mg/ml : 0. • Conclusions : AVF1 est virucide en 60 minutes à la concentration 2,5 mg/ml.
• Concentrations en AVF1 : 1 et 5 mg/ml. • Temps d'incubation : 5, 15, 30, et 60 minutes. • Résultats : • Titre du témoin-virus : 2 x 10^6 DI50/ml • AVF1 = 5 mg/ml : virucide en 5 minutes, titre = 0. • AVF1 = 1 mg/ml : le titre est réduit de 1,5 log 10 en 60 minutes.

## CC(C)(C)c1cc(C(=O)OCCOCCOCCOCCOCCOCCOCCOCCO)cc(C(C)(C)C)c1O [AVF1, 3,5-di-t-butyl-4-hydroxybenzoate d'octaoxyéthylèneglycol]
Essai 1, 60 minutes, 37°C
  concentration virucide en 60 minutes: 2,5 mg/ml
Essai 1, AVF1 ≥ 2,5 mg/ml, incubation 60 and 120 minutes, 37°C
  Titre infectieux (TV): 0 DI50/ml
Essai 2, AVF1 = 1 mg/ml, 60 minutes
  réduction du titre: 1,5 log 10
Essai 2, AVF1 = 5 mg/ml, virucidal in 5 minutes
  titre: 0 DI50/ml

Reference: patent EP0804408B1, “NOVEL 4-SUBSTITUTED 2,6-DI-TERT-BUTYLPHENOL COMPOUNDS, PHARMACEUTICAL COMPOSITIONS CONTAINING SAME AND PREPARATION METHOD THEREFOR” (priority 1994, dated 1996)
